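Five compound concentrations were applied to cells in 96-well plates for 48 hours; endpoints were derived by simple linear interpolation of the resulting dose-response curve. GI50 = concentration required for 50% inhibition of growth.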 The source made the active and inactive calls. Rule as the data show it: active = GI50 up to about 1.1 µM and inactive = higher.
Assays:
Assay in all cases: DTP human tumour cell line panel, 48 h
[1] = tested on: 786-0
[2] = tested on: A549
[3] = tested on: CAKI-1
[4] = tested on: CCRF-CEM
[5] = tested on: COLO 205
[6] = tested on: DU-145
[7] = tested on: EKVX
[8] = tested on: HCC 2998
[9] = tested on: HCT-15
[10] = tested on: HL-60
[11] = tested on: HOP-62
[12] = tested on: HT-29
[13] = tested on: IGROV-1
[14] = tested on: K562
[15] = tested on: KM12
[16] = tested on: M14
[17] = tested on: MCF7
[18] = tested on: MDA-MB-231
[19] = tested on: MDA-N
[20] = tested on: MOLT-4
[21] = tested on: Malme-3M
[22] = tested on: NCI-H23
[23] = tested on: OVCAR-8
[24] = tested on: PC-3
[25] = tested on: RPMI-8226
[26] = tested on: RXF 393
[27] = tested on: SF-268
[28] = tested on: SF-295
[29] = tested on: SK-MEL-28
[30] = tested on: SK-MEL-5
[31] = tested on: SK-OV-3
[32] = tested on: SN12C
[33] = tested on: SNB-75
[34] = tested on: SR
[35] = tested on: SW-620
[36] = tested on: T47D
[37] = tested on: TK-10
[38] = tested on: UACC-257
[39] = tested on: UACC-62
[40] = tested on: A498
[41] = tested on: ACHN
[42] = tested on: BT-549
[43] = tested on: HCT-116
[44] = tested on: HOP-92
[45] = tested on: LOX IMVI
[46] = tested on: MDA-MB-435
[47] = tested on: NCI-H226
[48] = tested on: NCI-H460
[49] = tested on: NCI/ADR-RES
[50] = tested on: OVCAR-3
[51] = tested on: OVCAR-4
[52] = tested on: OVCAR-5
[53] = tested on: SNB-19
[54] = tested on: U-251
[55] = tested on: UO-31

For `O=[N+]([O-])c1ccc(/C=N/Nc2nnc3c4ccccc4c4ncccc4c3n2)o1`, the GI50 [1] was > 10 µM (inactive), the GI50 [2] was > 10 µM (inactive) and the GI50 [3] was > 10 µM (inactive). The GI50 [4] was > 10 µM (inactive), the GI50 [5] was > 10 µM (inactive) and the GI50 [6] was > 10 µM (inactive). For the same compound, the GI50 [7] was > 10 µM (inactive), the GI50 [8] was > 10 µM (inactive) and the GI50 [9] was greater than 10 µM. For the same compound, the GI50 [10] was > 10 µM (inactive), the GI50 [11] was > 10 µM (inactive) and the GI50 [12] was > 10 µM (inactive). The GI50 [13] was > 10 µM (inactive), the GI50 [14] was > 10 µM (inactive) and the GI50 [15] was > 10 µM (inactive). The GI50 [16] was > 10 µM (inactive), the GI50 [17] was > 10 µM (inactive) and the GI50 [18] was > 10 µM (inactive). For the same compound, the GI50 [19] was > 10 µM (inactive), the GI50 [20] was > 10 µM (inactive) and the GI50 [21] was > 10 µM (inactive). For the same compound, the GI50 [22] was > 10 µM (inactive), the GI50 [23] was > 10 µM (inactive) and the GI50 [24] was > 10 µM (inactive). The GI50 [25] was > 10 µM (inactive), the GI50 [26] was > 10 µM (inactive) and the GI50 [27] was > 10 µM (inactive). The GI50 [28] was > 10 µM (inactive), the GI50 [29] was > 10 µM (inactive) and the GI50 [30] was > 10 µM (inactive). The GI50 [31] was > 10 µM (inactive), the GI50 [32] was > 10 µM (inactive) and the GI50 [33] was > 10 µM (inactive). For the same compound, the GI50 [34] was > 10 µM (inactive), the GI50 [35] was > 10 µM (inactive) and the GI50 [36] was > 10 µM (inactive). For the same compound, the GI50 [37] was > 10 µM (inactive), the GI50 [38] was > 10 µM (inactive) and the GI50 [39] was > 10 µM (inactive).

`COc1ccc2cc(C(C)C(O)c3cc(F)c(F)c(F)c3F)ccc2c1` (configuration not stated) was tested, and the GI50 [1] was > 100 µM (inactive), the GI50 [40] was > 100 µM (inactive) and the GI50 [2] was > 100 µM (inactive). For the same compound, the GI50 [41] was 42.9 µM (inactive), the GI50 [42] was > 100 µM (inactive) and the GI50 [4] was > 100 µM (inactive). For the same compound, the GI50 [5] was > 100 µM (inactive), the GI50 [6] was > 100 µM (inactive) and the GI50 [7] was 45.5 µM (inactive). For the same compound, the GI50 [8] was > 100 µM (inactive), the GI50 [43] was > 100 µM (inactive) and the GI50 [9] was greater than 100 µM. For the same compound, the GI50 [10] was 18.7 µM (inactive), the GI50 [11] was 26.2 µM (inactive) and the GI50 [44] was 18.6 µM (inactive). For the same compound, the GI50 [12] was > 100 µM (inactive), the GI50 [13] was > 100 µM (inactive) and the GI50 [14] was 30.8 µM (inactive). The GI50 [45] was > 100 µM (inactive), the GI50 [16] was > 100 µM (inactive) and the GI50 [17] was > 100 µM (inactive). For the same compound, the GI50 [18] was > 100 µM (inactive), the GI50 [46] was > 100 µM (inactive) and the GI50 [19] was > 100 µM (inactive). The GI50 [20] was > 10 µM (inactive), the GI50 [21] was > 100 µM (inactive) and the GI50 [47] was > 100 µM (inactive). The GI50 [22] was 49.8 µM (inactive), the GI50 [48] was > 100 µM (inactive) and the GI50 [49] was 97.9 µM (inactive). The GI50 [50] was 98.6 µM (inactive), the GI50 [51] was 70.5 µM (inactive) and the GI50 [52] was > 100 µM (inactive). The GI50 [23] was 65.3 µM (inactive), the GI50 [24] was > 100 µM (inactive) and the GI50 [25] was > 100 µM (inactive). For the same compound, the GI50 [27] was 76.4 µM (inactive), the GI50 [28] was 40.4 µM (inactive) and the GI50 [29] was > 100 µM (inactive). The GI50 [30] was > 100 µM (inactive), the GI50 [31] was > 100 µM (inactive) and the GI50 [32] was > 100 µM (inactive). The GI50 [53] was > 100 µM (inactive), the GI50 [33] was 16.3 µM (inactive) and the GI50 [35] was > 100 µM (inactive). The GI50 [36] was 53.5 µM (inactive), the GI50 [37] was > 100 µM (inactive) and the GI50 [54] was > 100 µM (inactive). The GI50 [38] was > 100 µM (inactive), the GI50 [39] was > 100 µM (inactive) and the GI50 [55] was 86.5 µM (inactive).

With `C=C=C(C)C(=O)N(C(C)C)C(C)C` the GI50 [1] was > 100 µM (inactive), the GI50 [40] was > 100 µM (inactive) and the GI50 [2] was > 100 µM (inactive). The GI50 [41] was > 100 µM (inactive), the GI50 [42] was > 100 µM (inactive) and the GI50 [4] was > 100 µM (inactive). For the same compound, the GI50 [5] was > 100 µM (inactive), the GI50 [6] was > 100 µM (inactive) and the GI50 [7] was > 100 µM (inactive). The GI50 [8] was > 100 µM (inactive), the GI50 [43] was > 100 µM (inactive) and the GI50 [9] was greater than 100 µM. The GI50 [10] was > 100 µM (inactive), the GI50 [11] was > 100 µM (inactive) and the GI50 [44] was > 100 µM (inactive). For the same compound, the GI50 [12] was > 100 µM (inactive), the GI50 [13] was > 100 µM (inactive) and the GI50 [14] was > 100 µM (inactive). The GI50 [45] was > 100 µM (inactive), the GI50 [16] was > 100 µM (inactive) and the GI50 [17] was > 100 µM (inactive). For the same compound, the GI50 [18] was > 100 µM (inactive), the GI50 [46] was > 100 µM (inactive) and the GI50 [19] was > 100 µM (inactive). For the same compound, the GI50 [20] was > 100 µM (inactive), the GI50 [21] was > 100 µM (inactive) and the GI50 [47] was > 100 µM (inactive). The GI50 [22] was > 100 µM (inactive), the GI50 [48] was > 100 µM (inactive) and the GI50 [49] was > 100 µM (inactive). The GI50 [50] was > 100 µM (inactive), the GI50 [51] was > 100 µM (inactive) and the GI50 [52] was > 100 µM (inactive). For the same compound, the GI50 [23] was > 100 µM (inactive), the GI50 [24] was > 100 µM (inactive) and the GI50 [25] was > 100 µM (inactive). The GI50 [27] was > 100 µM (inactive), the GI50 [28] was > 100 µM (inactive) and the GI50 [29] was > 100 µM (inactive). For the same compound, the GI50 [30] was > 100 µM (inactive), the GI50 [31] was > 100 µM (inactive) and the GI50 [32] was > 100 µM (inactive). The GI50 [53] was > 100 µM (inactive), the GI50 [33] was > 100 µM (inactive) and the GI50 [34] was > 100 µM (inactive). For the same compound, the GI50 [35] was > 100 µM (inactive), the GI50 [36] was > 100 µM (inactive) and the GI50 [37] was > 100 µM (inactive). The GI50 [54] was > 100 µM (inactive), the GI50 [38] was > 100 µM (inactive) and the GI50 [39] was > 100 µM (inactive). The GI50 [55] was > 100 µM (inactive).
